From US20230399312A1, “SUBSTITUTED PYRIMIDINES AND METHODS OF USE” (THERAVANCE BIOPHARMA R&D IP, LLC, priority 2020, published 2023)

Key:
[1] = system: TGF-β-stimulated SMAD3 phosphorylation in BEAS-2B cells; experiment: Cellular ALK5 potency assay, inhibition of TGF-β stimulated pSMAD3 formation in BEAS-2B cells; assay type: cell-based; settings: Homo sapiens, pSMAD3, TGF-β 10 ng/mL, read-out: BEAS2B pIC50 (converted)
Method in brief: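 Cells were seeded overnight, rinsed into HEPES/BSA-supplemented HBSS, and dosed with serially diluted compound for 1 h at 37 °C, 5% CO2. TGF-β stimulation (10 ng/mL final) followed for 30 min, then lysis and AlphaLISA pSMAD3 measurement; potency reported as pIC50.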

[2] = target: T1, recombinant human ALK5 (TGF-βR1) protein (Homo sapiens, UniProt P36897); experiment: Biochemical ALK5 (TGF-βR1) assay to measure pKi (LANCE Ultra ULight kinase assay); settings: apparent pKi, converted from pIC50 by Cheng-Prusoff
T1 construct: purchased Life Technologies PR9075A
T1 sequence (P36897 34-503): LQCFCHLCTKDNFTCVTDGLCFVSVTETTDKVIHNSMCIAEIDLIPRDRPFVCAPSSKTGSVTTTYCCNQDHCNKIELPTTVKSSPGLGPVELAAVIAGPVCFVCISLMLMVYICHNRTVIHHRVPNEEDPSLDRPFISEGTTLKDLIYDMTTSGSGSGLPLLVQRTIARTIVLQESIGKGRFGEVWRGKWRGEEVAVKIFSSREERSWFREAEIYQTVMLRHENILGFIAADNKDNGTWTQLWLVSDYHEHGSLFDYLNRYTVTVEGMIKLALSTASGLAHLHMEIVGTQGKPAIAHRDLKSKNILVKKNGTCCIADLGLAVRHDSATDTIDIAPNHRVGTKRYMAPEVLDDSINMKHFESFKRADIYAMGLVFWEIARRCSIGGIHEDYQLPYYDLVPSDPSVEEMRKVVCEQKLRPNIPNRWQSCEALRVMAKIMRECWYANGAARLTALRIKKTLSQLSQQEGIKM
Method in brief: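 Read-out was LANCE Ultra TR-FRET with a europium anti-phospho-Topo IIα Thr1342 antibody after EDTA quench. Kinase reaction ran 60 min at 37 °C with ATP added from a 125 μM 5× stock, after 60 min compound–enzyme equilibration at room temperature. Values are pKi from Cheng-Prusoff conversion of fitted pIC50.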

Row | Ki [2] [nM] | Compound | IC50 [1] [nM]
1 | 0.0398 to 0.316 | Cc1cccc(-c2nccc(Nc3ccnc(Nc4ccc(NC(=O)C5CCN(C6CCNC6)CC5)cc4)n3)n2)n1 (stereo not shown) [Compound 465, N-[4-[[4-[[2-(6-methyl-2-pyridyl)pyrimidin-4-yl]amino]pyrimidin-2-yl]amino]phenyl]-1-pyrrolidin-3-yl-piperidine-4-carboxamide] | ≤ 20
2 | 0.0398 to 0.316 | Cc1cccc(-c2nccc(Nc3ccnc(Nc4ccc(N(C)C5CNC5)cc4)n3)n2)n1 [Compound 496, N2-[4-[azetidin-3-yl(methyl)amino]phenyl]-N4-[2-(6-methyl-2-pyridyl)pyrimidin-4-yl]pyrimidine-2,4-diamine] | 25.1 to 158
3 | 0.0398 to 0.316 | Cc1cccc(-c2nccc(Nc3ccnc(Nc4cccc(NCC5CNC5)c4)n3)n2)n1 [Compound 118, N2-[3-(azetidin-3-ylmethylamino)phenyl]-N4-[2-(6-methyl-2-pyridyl)pyrimidin-4-yl]pyrimidine-2,4-diamine] | 25.1 to 158
4 | 0.0398 to 0.316 | Cc1cccc(-c2nccc(Nc3ccnc(Nc4ccc(N5CCC(C(=O)O)CC5)cc4)n3)n2)n1 [Compound 71, 1-[4-[[4-[[2-(6-methyl-2-pyridyl)pyrimidin-4-yl]amino]pyrimidin-2-yl]amino]phenyl]piperidine-4-carboxylic acid] | 25.1 to 158
5 | 0.0398 to 0.316 | CC[C@H](C)OC(=O)Cc1cc(Nc2nccc(Nc3ccnc(-c4cccc(C)n4)n3)n2)ccc1N1CCNCC1 [Compound 466, [(1S)-1-methylpropyl] 2-[5-[[4-[[2-(6-methyl-2-pyridyl)pyrimidin-4-yl]amino]pyrimidin-2-yl]amino]-2-piperazin-1-yl-phenyl]acetate] | 25.1 to 158
6 | 0.0398 to 0.316 | Cc1cccc(-c2nccc(Nc3ccnc(Nc4ccc(C(=O)OCC5CNC5)s4)n3)n2)n1 [Compound 100, azetidin-3-ylmethyl 5-[[4-[[2-(6-methyl-2-pyridyl)pyrimidin-4-yl]amino]pyrimidin-2-yl]amino]thiophene-2-carboxylate] | 25.1 to 158
7 | 0.0398 to 0.316 | COC(=O)C1CNCCN1Cc1ccc(Nc2nccc(Nc3ccnc(-c4cccc(C)n4)n3)n2)cc1 (stereo not shown) [Compound 25, methyl 1-[[4-[[4-[[2-(6-methyl-2-pyridyl)pyrimidin-4-yl]amino]pyrimidin-2-yl]amino]phenyl]methyl] piperazine-2-carboxylate] | 25.1 to 158
8 | 0.0398 to 0.316 | Cc1cccc(-c2nccc(Nc3ccnc(Nc4ccc(C(=O)OCC5CNC5)cc4)n3)n2)n1 [Compound 33, azetidin-3-ylmethyl 4-((4-((2-(6-methylpyridin-2-yl)pyrimidin-4-yl)amino)pyrimidin-2-yl)amino)benzoate] | 25.1 to 158
9 | 0.398 to 3.16 | Cc1cccc(-c2nccc(Nc3ccnc(Nc4ccc(-c5cnn(CCO)c5)cc4)n3)n2)n1 [Compound 36, 2-[4-[4-[[4-[[2-(6-methyl-2-pyridyl)pyrimidin-4-yl]amino]pyrimidin-2-yl]amino]phenyl]pyrazol-1-yl]ethanol] | 25.1 to 158
10 | 0.0398 to 0.316 | Cc1cccc(-c2nccc(Nc3ccnc(Nc4ccc(CN5CCN[C@H](C(=O)O)C5)cc4)n3)n2)n1 [Compound 283, (2S)-4-[[4-[[4-[[2-(6-methyl-2-pyridyl)pyrimidin-4-yl]amino]pyrimidin-2-yl]amino]phenyl]methyl] piperazine-2-carboxylic acid] | 200 to 1260
11 | 0.398 to 3.16 | Cc1cccc(-c2nccc(Nc3ccnc(Nc4ccc(O)cc4)n3)n2)n1 [Compound 285, 4-[[4-[[2-(6-methyl-2-pyridyl)pyrimidin-4-yl]amino]pyrimidin-2-yl]amino]phenol] | 25.1 to 158
12 | 0.0398 to 0.316 | Cc1cccc(-c2nccc(Nc3ccnc(Nc4ccc(S(=O)(=O)NCCN(C)C)cc4)n3)n2)n1 [Compound 70, N-[2-(dimethylamino)ethyl]-4-[[4-[[2-(6-methyl-2-pyridyl)pyrimidin-4-yl]amino]pyrimidin-2-yl]amino]benzenesulfonamide] | 25.1 to 158
13 | 0.398 to 3.16 | Cc1cccc(-c2nccc(Nc3ccnc(Nc4cccc(C(=O)OCC5CNC5)c4)n3)n2)n1 [Compound 178, azetidin-3-ylmethyl 3-((4-((2-(6-methylpyridin-2-yl)pyrimidin-4-yl)amino)pyrimidin-2-yl)amino)benzoate] | 25.1 to 158
14 | 0.0398 to 0.316 | Cc1cccc(-c2nccc(Nc3ccnc(Nc4ccc(C(=O)O[C@H]5CCN(C)C5)s4)n3)n2)n1 [Compound 507, [(3S)-1-methylpyrrolidin-3-yl] 5-[[4-[[2-(6-methyl-2-pyridyl)pyrimidin-4-yl]amino]pyrimidin-2-yl]amino]thiophene-2-carboxylate] | 25.1 to 158
15 | 0.0398 to 0.316 | Cc1cccc(-c2nccc(Nc3ccnc(Nc4csc(C(=O)OCCN5C[C@@H](C)N[C@@H](C)C5)c4)n3)n2)n1 [Compound 627, 2-[(3S,5R)-3,5-dimethylpiperazin-1-yl]ethyl 4-[[4-[[2-(6-methyl-2-pyridyl)pyrimidin-4-yl]amino]pyrimidin-2-yl]amino]thiophene-2-carboxylate] | 25.1 to 158
16 | 0.0398 to 0.316 | Cc1cccc(-c2nccc(Nc3ccnc(Nc4ccc(NC(=O)C5CCNCC5)cc4)n3)n2)n1 [Compound 14, N-(4-((4-((2-(6-methylpyridin-2-yl)pyrimidin-4-yl)amino)pyrimidin-2-yl)amino)phenyl)piperidine-4-carboxamide] | ≤ 20
17 | 0.0398 to 0.316 | Cc1cccc(-c2nccc(Nc3ccnc(Nc4ccc(NS(C)(=O)=O)cc4)n3)n2)n1 [Compound 272, N-[4-[[4-[[2-(6-methyl-2-pyridyl)pyrimidin-4-yl]amino]pyrimidin-2-yl]amino]phenyl] methanesulfonamide] | 25.1 to 158
18 | 0.0398 to 0.316 | Cc1cccc(-c2nc(Nc3ccnc(Nc4ccc(NC(=O)[C@H]5C[C@@H](N)C5)cc4)n3)c3cccn3n2)n1 [Compound 1030, 3-amino-N-[4-[[4-[[2-(6-methyl-2-pyridyl)pyrrolo[2,1-f][1,2,4]triazin-4-yl]amino]pyrimidin-2-yl]amino]phenyl] cyclobutanecarboxamide] | 25.1 to 158
19 | 0.0398 to 0.316 | COC(=O)c1cc(Nc2nccc(Nc3ccnc(-c4cccc(C)n4)n3)n2)ccc1N1CCNCC1 [Compound 312, methyl 5-[[4-[[2-(6-methyl-2-pyridyl)pyrimidin-4-yl]amino]pyrimidin-2-yl]amino]-2-piperazin-1-yl-benzoate] | 25.1 to 158
20 | 0.0398 to 0.316 | Cc1cccc(-c2nccc(Nc3ccnc(Nc4ccc(N5CCC(N(C)Cc6ccccn6)CC5)cc4)n3)n2)n1 [Compound 243, N2-[4-[4-[methyl(2-pyridylmethyl)amino]-1-piperidyl]phenyl]-N4-[2-(6-methyl-2-pyridyl)pyrimidin-4-yl]pyrimidine-2,4-diamine] | 25.1 to 158
21 | 0.0398 to 0.316 | Cc1cccc(-c2nccc(Nc3ccnc(Nc4ccc(CN5CCN(C(C)(C)C)CC5)cc4)n3)n2)n1 [Compound 109, N2-[4-[(4-tert-butylpiperazin-1-yl)methyl]phenyl]-N4-[2-(6-methyl-2-pyridyl)pyrimidin-4-yl]pyrimidine-2,4-diamine] | 25.1 to 158
22 | 0.0398 to 0.316 | Cc1cccc(-c2nccc(Nc3ccnc(Nc4ccc(N5CCN(CC6CCNC6)CC5)cc4)n3)n2)n1 (stereo not shown) [Compound 102, N4-[2-(6-methyl-2-pyridyl)pyrimidin-4-yl]-N2-[4-[4-(pyrrolidin-3-ylmethyl)piperazin-1-yl]phenyl]pyrimidine-2,4-diamine] | 25.1 to 158
23 | 0.0398 to 0.316 | Cc1cccc(-c2nccc(Nc3ccnc(Nc4ccc(NS(=O)(=O)N(C)C5CCNCC5)cc4)n3)n2)n1 [Compound 441, 4-[[2-[4-[[methyl(4-piperidyl)sulfamoyl]amino]anilino]pyrimidin-4-yl]amino]-2-(6-methyl-2-pyridyl)pyrimidine] | 25.1 to 158
24 | 0.0398 to 0.316 | Cc1cccc(-c2nc(Nc3ccnc(Nc4ccc(C(=O)N5CCC6(CC5)CNC6)cc4)n3)c3cccn3n2)n1 [Compound 1033, 2,7-diazaspiro[3.5]nonan-7-yl-[4-[[4-[[2-(6-methyl-2-pyridyl)pyrrolo[2,1-f][1,2,4]triazin-4-yl]amino]pyrimidin-2-yl]amino]phenyl]methanone] | 25.1 to 158
25 | 0.0398 to 0.316 | Fc1cc(F)c(-c2nccc(Nc3ccnc(Nc4ccc(N5CCNCC5)cc4)n3)n2)cc1Cl [Compound 556, N4-(2-(5-chloro-2,4-difluorophenyl)pyrimidin-4-yl)-N2-(4-(piperazin-1-yl)phenyl)pyrimidine-2,4-diamine] | 25.1 to 158

Row | Compound | Ki [2] [nM] | IC50 [1] [nM]
26 | Cc1cccc(-c2nccc(Nc3ccnc(Nc4ncc(C5=CCNCC5)s4)n3)n2)n1 [Compound 623, N4-[2-(6-methyl-2-pyridyl)pyrimidin-4-yl]-N2-[5-(1,2,3,6-tetrahydropyridin-4-yl)thiazol-2-yl]pyrimidine-2,4-diamine] | 0.398 to 3.16 | 25.1 to 158
